According to patent publication US6620828B2, “Thiazole compounds and pharmaceutical compositions for inhibiting protein kinases and methods for their use” (Agouron Pharmaceuticals, Inc., priority 1999, dated 2003):
Like-named read-outs stand apart in the source and are kept apart here.

Tested on: human umbilical vein endothelial cells (HUVEC)
Experiment: HUVEC proliferation assay
Format: cell-based
Conditions: Homo sapiens, HUVEC; for inhibition at 0.001 µM: 1 nM; for inhibition at 0.01 µM: 10 nM; for inhibition at 0.05 µM: 50 nM; for inhibition at 0.15 µM: Table I screening results, 150 nM
Method in brief: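 Readout was MTT dye reduction (A595) after 72 h of stimulation with VEGF at 6 ng/ml final. Compound, in 0.1% DMSO final, was added 1 h before VEGF to HUVEC starved 24 h in 1% FBS. % inhibition was scaled between VEGF-alone and unstimulated wells; IC50 was fitted from triplicate dose curves.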

[1] = table following Table II (untitled), crude combinatorial library
[2] = table following Table II (untitled), crude combinatorial library, read-out: % inhibition @ 10 nM
[3] = Inhibition of HUVEC Proliferation, crude combinatorial urea library, read-out: % inhibition @ 50 nM
[4] = crude combinatorial amide library
[5] = Table II screening results, crude combinatorial amide library
[6] = Table II screening results, crude combinatorial amide library, read-out: % inhibition @ 10 nM
[7] = crude combinatorial urea library, read-out: Inhibition of HUVEC Proliferation % inhibition @ 10 nM
[8] = crude combinatorial urea library, read-out: Inhibition of HUVEC Proliferation % inhibition @ 50 nM
[9] = Inhibition of HUVEC Proliferation, crude combinatorial urea library, read-out: Inhibition @ 50 nM

## COc1cc(Nc2nc(N)c(-c3nc(-c4cc(NC(=O)c5ccccc5)ccc4C)no3)s2)cc(OC)c1OC
[1]
  inhibition at 0.001 µM: 25%
[2]
  inhibition at 0.01 µM: 111%

## COc1cc(Nc2nc(N)c(-c3nc(-c4cc(NC(=O)C(O)c5ccccc5)ccc4C)no3)s2)cc(OC)c1OC (stereo not shown)
[1]
  inhibition at 0.001 µM: -1%
[2]
  inhibition at 0.01 µM: 40%

## COc1cccc(C(=O)Nc2cc(-c3csc(-c4sc(NC(=O)NCc5ccc(N(C)C)cc5)nc4N)n3)c(F)cc2F)c1
[3]
  inhibition at 0.05 µM: 39%

## COc1cc(Nc2nc(N)c(-c3nc(-c4cc(NC(=O)C5(c6ccc(C)cc6)CC5)ccc4C)no3)s2)cc(OC)c1OC
[1]
  inhibition at 0.001 µM: 10%
[2]
  inhibition at 0.01 µM: -8%

## COc1cc(Nc2nc(N)c(-c3nc(-c4cccc(NC(=O)c5ccc6[nH]nnc6c5)c4)cs3)s2)cc(OC)c1OC
[4]
  inhibition at 0.15 µM: -8%

## CNC(=O)Nc1nc(N)c(-c2nc(-c3cccc(NC(=O)CCN4CCCCC4)c3)cs2)s1
[5]
  inhibition at 0.001 µM: 1%
[6]
  inhibition at 0.01 µM: -26%

## COc1cc(Nc2nc(N)c(-c3nc(-c4cccc(NC(=O)CCc5ccccc5)c4)cs3)s2)cc(OC)c1OC [drawing 884]
[4]
  inhibition at 0.15 µM: 4%

## CNC(=O)Nc1nc(N)c(-c2nc(-c3cccc(NC(=O)C4C(C)(C)C4(C)C)c3)cs2)s1
[5]
  inhibition at 0.001 µM: 11%
[6]
  inhibition at 0.01 µM: 21%

## COc1cccc(C(=O)Nc2cccc(-c3csc(-c4sc(NC(=O)NCCC(=O)O)nc4N)n3)c2)c1
[7]
  inhibition at 0.01 µM: -1%
[8]
  inhibition at 0.05 µM: 8%

## COc1cc(Nc2nc(N)c(-c3nc(-c4cccc(NC(=O)c5c[nH]c6ccccc56)c4)cs3)s2)cc(OC)c1OC
[4]
  inhibition at 0.15 µM: 20%

## COc1cccc(C(=O)Nc2cc(-c3noc(-c4sc(NC(=O)NCC(C)(C)CO)nc4N)n3)c(F)cc2F)c1
[9]
  inhibition at 0.05 µM: 104%

## CNC(=O)Nc1nc(N)c(-c2nc(-c3cccc(NC(=O)C4CNC(=O)N4)c3)cs2)s1 (stereo not shown)
[5]
  inhibition at 0.001 µM: 11%
[6]
  inhibition at 0.01 µM: 18%

## COc1cccc(C(=O)Nc2cccc(-c3csc(-c4sc(NC(=O)NC(C)CO)nc4N)n3)c2)c1 (stereo not shown)
[7]
  inhibition at 0.01 µM: -3%
[8]
  inhibition at 0.05 µM: 42%

## COc1cccc(C(=O)Nc2cccc(-c3csc(-c4sc(NC(=O)NCCOCCO)nc4N)n3)c2)c1
[7]
  inhibition at 0.01 µM: 13%
[8]
  inhibition at 0.05 µM: 92%

## COc1cccc(C(=O)Nc2cc(-c3csc(-c4sc(NC(=O)NCC(C)(C)C)nc4N)n3)c(F)cc2F)c1
[3]
  inhibition at 0.05 µM: 43%

## COc1cc(Nc2nc(N)c(-c3nc(-c4cccc(NC(=O)CCC(C)C)c4)cs3)s2)cc(OC)c1OC
[4]
  inhibition at 0.15 µM: 39%

## COc1cc(Nc2nc(N)c(-c3nc(-c4cccc(NC(=O)Cc5ccccc5F)c4)cs3)s2)cc(OC)c1OC
[4]
  inhibition at 0.15 µM: 21%

## COc1cccc(C(=O)Nc2cc(-c3noc(-c4sc(NC(=O)NC(C)CO)nc4N)n3)c(F)cc2F)c1 (stereo not shown)
[9]
  inhibition at 0.05 µM: 77%

## CNC(=O)Nc1nc(N)c(-c2nc(-c3cccc(NC(=O)C4C(C=C(C)C)C4(C)C)c3)cs2)s1 (stereo not shown)
[5]
  inhibition at 0.001 µM: -17%
[6]
  inhibition at 0.01 µM: 12%

## COc1cccc(C(=O)Nc2cc(-c3csc(-c4sc(NC(=O)NCc5ccccc5)nc4N)n3)c(F)cc2F)c1 [O(13), N-{5-[4′-Amino-2′-(3-benzyl-ureido)-[2,5′]bithiazolyl-4-yl]-2,4-difluoro-phenyl}-3-methoxy-benzamide]
Table 3
  IC50: 140 nM

## COc1cccc(C(=O)Nc2cc(-c3csc(-c4sc(NC(=O)NCCCN5CCCC5)nc4N)n3)c(F)cc2F)c1
[3]
  inhibition at 0.05 µM: 92%

## CNC(=O)Nc1nc(N)c(-c2nc(-c3cccc(NC(=O)C4(c5ccc(C)cc5)CC4)c3)cs2)s1
[5]
  inhibition at 0.001 µM: -8%
[6]
  inhibition at 0.01 µM: -6%

## CCNc1ccccc1C(=O)Nc1cccc(-c2csc(-c3sc(NC(=O)NC)nc3N)n2)c1
[5]
  inhibition at 0.001 µM: -1%
[6]
  inhibition at 0.01 µM: 29%

## COc1cc(Nc2nc(N)c(-c3nc(-c4cccc(NC(=O)C5CCc6ccccc6C5)c4)cs3)s2)cc(OC)c1OC (stereo not shown)
[4]
  inhibition at 0.15 µM: 11%

## COc1cc(Nc2nc(N)c(-c3nc(-c4cccc(NC(=O)c5ccc(SC)cc5)c4)cs3)s2)cc(OC)c1OC
[4]
  inhibition at 0.15 µM: 31%

## COc1cccc(C(=O)Nc2cc(-c3noc(-c4sc(NC(=O)NCc5ccc(N)cc5)nc4N)n3)c(F)cc2F)c1
[9]
  inhibition at 0.05 µM: 82%

## COc1cccc(C(=O)Nc2cccc(-c3csc(-c4sc(NC(=O)NCCCN5CCCCCC5)nc4N)n3)c2)c1
[7]
  inhibition at 0.01 µM: 2%
[8]
  inhibition at 0.05 µM: 117%

## COc1cccc(C(=O)Nc2cccc(-c3csc(-c4sc(Nc5cc(OC)c(OC)c(OC)c5)nc4N)n3)c2)c1 [drawing 999]
[4]
  inhibition at 0.15 µM: 108%

## COC(=O)c1cccc(C(=O)Nc2cccc(-c3csc(-c4sc(Nc5cc(OC)c(OC)c(OC)c5)nc4N)n3)c2)c1
[4]
  inhibition at 0.15 µM: 42%

## COc1cc(Nc2nc(N)c(-c3nc(-c4cccc(NC(=O)C(C)(C)C)c4)cs3)s2)cc(OC)c1OC
[4]
  inhibition at 0.15 µM: 7%

## COc1cccc(C(=O)Nc2cc(-c3noc(-c4sc(NC(=O)NCCc5ccc(N)cc5)nc4N)n3)c(F)cc2F)c1
[9]
  inhibition at 0.05 µM: 88%

## COc1cc(Nc2nc(N)c(-c3nc(-c4cccc(NC(=O)c5ccc(C)s5)c4)cs3)s2)cc(OC)c1OC [drawing 916]
[4]
  inhibition at 0.15 µM: 32%

## COc1cc(Nc2nc(N)c(-c3nc(-c4cc(NC(=O)c5cc(C)n(C)n5)ccc4C)no3)s2)cc(OC)c1OC
[1]
  inhibition at 0.001 µM: 25%
[2]
  inhibition at 0.01 µM: 99%

## COc1cc(Nc2nc(N)c(-c3nc(-c4cccc(NC(=O)c5ccc(N(C)C)cc5)c4)cs3)s2)cc(OC)c1OC
[4]
  inhibition at 0.15 µM: 0%

## CNC(=O)Nc1nc(N)c(-c2nc(-c3cccc(NC(=O)Cc4cc(F)cc(F)c4)c3)cs2)s1
[5]
  inhibition at 0.001 µM: -5%
[6]
  inhibition at 0.01 µM: -10%

## CC/C=C(\C)C(=O)Nc1cccc(-c2csc(-c3sc(NC(=O)NC)nc3N)n2)c1
[5]
  inhibition at 0.001 µM: -12%
[6]
  inhibition at 0.01 µM: 67%

## COc1cc(Nc2nc(N)c(-c3nc(-c4cc(NC(=O)c5cc(C)n[nH]5)ccc4C)no3)s2)cc(OC)c1OC
[1]
  inhibition at 0.001 µM: -1%
[2]
  inhibition at 0.01 µM: 99%

## COc1cc(Nc2nc(N)c(-c3nc(-c4cccc(NC(=O)c5ccc(C#N)cc5)c4)cs3)s2)cc(OC)c1OC
[4]
  inhibition at 0.15 µM: 34%

## COc1cccc(C(=O)Nc2cccc(-c3csc(-c4sc(NC(=O)N[C@@H](CC(N)=O)C(N)=O)nc4N)n3)c2)c1
[7]
  inhibition at 0.01 µM: 19%
[8]
  inhibition at 0.05 µM: 23%

## COc1cccc(C(=O)Nc2cc(-c3noc(-c4sc(NC(=O)NCCN5CCCCC5)nc4N)n3)c(F)cc2F)c1
[9]
  inhibition at 0.05 µM: 78%

## COc1cc(Nc2nc(N)c(-c3nc(-c4cccc(NC(=O)c5ccc6cc[nH]c6c5)c4)cs3)s2)cc(OC)c1OC
[4]
  inhibition at 0.15 µM: 25%

## COc1cccc(C(=O)Nc2cc(-c3noc(-c4sc(NC(=O)N[C@H](CO)Cc5c[nH]cn5)nc4N)n3)c(F)cc2F)c1
[9]
  inhibition at 0.05 µM: 77%

## COc1cccc(C(=O)Nc2cccc(-c3csc(-c4sc(NC(=O)NCC(C)N(C)C)nc4N)n3)c2)c1 (stereo not shown)
[7]
  inhibition at 0.01 µM: -22%
[8]
  inhibition at 0.05 µM: -3%

## C#CCCCC(=O)Nc1cccc(-c2csc(-c3sc(Nc4cc(OC)c(OC)c(OC)c4)nc3N)n2)c1
[4]
  inhibition at 0.15 µM: -14%

## COC(=O)c1ccc(C(=O)Nc2cccc(-c3csc(-c4sc(Nc5cc(OC)c(OC)c(OC)c5)nc4N)n3)c2)nc1
[4]
  inhibition at 0.15 µM: 20%

## COc1cc(Nc2nc(N)c(-c3nc(-c4cccc(NC(=O)c5ccc6ccccc6c5)c4)cs3)s2)cc(OC)c1OC
[4]
  inhibition at 0.15 µM: 53%

## COc1cccc(C(=O)Nc2cccc(-c3csc(-c4sc(NC(=O)NCCc5ccc(N)cc5)nc4N)n3)c2)c1
[7]
  inhibition at 0.01 µM: -3%
[8]
  inhibition at 0.05 µM: 3%

## CNC(=O)Nc1nc(N)c(-c2nc(-c3cccc(NC(=O)c4ccc(=O)oc4)c3)cs2)s1
[5]
  inhibition at 0.001 µM: -4%
[6]
  inhibition at 0.01 µM: 30%

## COc1cccc(C(=O)Nc2cc(-c3noc(-c4sc(NC(=O)NCCc5cccnc5)nc4N)n3)c(F)cc2F)c1
[9]
  inhibition at 0.05 µM: 38%

## COc1cccc(C(=O)Nc2cc(-c3csc(-c4sc(NC(=O)NCCN(C)C)nc4N)n3)c(F)cc2F)c1
[3]
  inhibition at 0.05 µM: 63%

## COc1cccc(C(=O)Nc2cc(-c3noc(-c4sc(NC(=O)NCCCN5CCCC5)nc4N)n3)c(F)cc2F)c1
[9]
  inhibition at 0.05 µM: 75%

## COc1cccc(C(=O)Nc2cc(-c3csc(-c4sc(NC(=O)NCCN5CCOCC5)nc4N)n3)c(F)cc2F)c1 [drawing 700]
[3]
  inhibition at 0.05 µM: 96%

## CCCN(CCC)CC(=O)Nc1cccc(-c2csc(-c3sc(NC(=O)NC)nc3N)n2)c1
[5]
  inhibition at 0.001 µM: 10%
[6]
  inhibition at 0.01 µM: 0%

## COc1cccc(C(=O)Nc2cccc(-c3csc(-c4sc(NC(=O)NCCC(N)=O)nc4N)n3)c2)c1
[7]
  inhibition at 0.01 µM: 30%
[8]
  inhibition at 0.05 µM: 1%

## COc1cccc(C(=O)Nc2cccc(-c3csc(-c4sc(NC(=O)NCCCN(C)C)nc4N)n3)c2)c1
[7]
  inhibition at 0.01 µM: -8%
[8]
  inhibition at 0.05 µM: 15%

## COCC(C)NC(=O)Nc1nc(N)c(-c2nc(-c3cc(NC(=O)c4cccc(OC)c4)c(F)cc3F)cs2)s1 (stereo not shown) [drawing 704]
[3]
  inhibition at 0.05 µM: 93%

## COc1ccc2c(c1)C(CC(=O)Nc1cccc(-c3csc(-c4sc(Nc5cc(OC)c(OC)c(OC)c5)nc4N)n3)c1)CC2=O (stereo not shown)
[4]
  inhibition at 0.15 µM: 0%

## COc1cc(Nc2nc(N)c(-c3nc(-c4cc(NC(=O)c5cc(C)on5)ccc4C)no3)s2)cc(OC)c1OC
[1]
  inhibition at 0.001 µM: 12%
[2]
  inhibition at 0.01 µM: 15%

## COc1cccc(C(=O)Nc2cccc(-c3csc(-c4sc(NC(=O)NCC(N)=O)nc4N)n3)c2)c1
[7]
  inhibition at 0.01 µM: 12%
[8]
  inhibition at 0.05 µM: 25%

## COc1cccc(C(=O)Nc2cccc(-c3csc(-c4sc(NC(=O)NCCCC(=O)O)nc4N)n3)c2)c1
[7]
  inhibition at 0.01 µM: 23%
[8]
  inhibition at 0.05 µM: 24%

## CCOC(=O)c1cc(C(=O)Nc2cccc(-c3csc(-c4sc(Nc5cc(OC)c(OC)c(OC)c5)nc4N)n3)c2)cc(C(=O)OCC)c1
[4]
  inhibition at 0.15 µM: 6%
